Data published in article PMC4809288, “Formation of β-glucogallin, the precursor of ellagic acid in strawberry and raspberry” (Journal of Experimental Botany, 2016).

Biological target: T1, FaGT2* (Fragaria x ananassa, UniProt Q66PF4)
T1 construct: gene GT2; full-length ORF, N-terminal GST tag kept (pGEX-4T-1), E. coli BL21(DE3) pLysS; natural allele of FaGT2 with eight amino acid differences, of which R230, E420, I422 (FaGT2: S230, D420, V422) are given
Assay: radiochemical UDP-[…]glucose transfer assay, butanol extraction, LSC; Hanes-Woolf and non-linear fit
Format: biochemical
Settings: 100 mM Tris-HCl pH 7.0, 30 °C, 30 min, fixed UDP-glucose (10 010 pmol); GST fusion

T1 sequence (Q66PF4 whole entry): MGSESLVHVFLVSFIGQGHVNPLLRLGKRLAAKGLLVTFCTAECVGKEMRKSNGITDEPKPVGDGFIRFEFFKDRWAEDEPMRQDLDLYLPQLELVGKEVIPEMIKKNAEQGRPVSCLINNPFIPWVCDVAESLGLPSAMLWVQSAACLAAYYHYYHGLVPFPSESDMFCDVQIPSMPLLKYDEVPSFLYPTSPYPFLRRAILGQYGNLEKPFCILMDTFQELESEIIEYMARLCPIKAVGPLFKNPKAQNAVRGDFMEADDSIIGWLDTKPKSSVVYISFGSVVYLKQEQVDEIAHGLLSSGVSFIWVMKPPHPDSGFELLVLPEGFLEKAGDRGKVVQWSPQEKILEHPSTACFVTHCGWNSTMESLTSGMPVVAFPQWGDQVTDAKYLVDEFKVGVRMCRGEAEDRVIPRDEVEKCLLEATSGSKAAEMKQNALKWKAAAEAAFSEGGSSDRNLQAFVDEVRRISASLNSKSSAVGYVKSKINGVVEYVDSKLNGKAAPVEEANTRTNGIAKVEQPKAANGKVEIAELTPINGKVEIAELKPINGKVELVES

Row | Km | Structure (SMILES)
1 | 315 ± 8.4 µM | O=C(O)c1ccc(O)cc1 [4-Hydroxybenzoic acid]
2 | 35 ± 3 µM | COc1cc(/C=C/C(=O)O)cc(OC)c1O [Sinapic acid]
3 | 262 ± 7 µM | COc1cc(C(=O)O)cc(OC)c1O [Syringic acid]
4 | 364 ± 12.8 µM | COc1cc(C(=O)O)ccc1O [Vanillic acid]
